Results from PubChem BioAssay AID248 (DTP/NCI, 2004).
Values joined by “and” are separate entries in the source; they are usually repeats but may differ in a detail not shown here. Equal values may be shown once. Inconclusive results and toxic doses are left out. No stated cut-off is given here; in the data, active means T/C of 150% or more; inactive means T/C below 125%.

Tested on: L1210 leukemia ip in BDF1 mice, survival T/C
Assay: NCI In Vivo Anticancer Drug Screen. Data for tumor model L1210 Leukemia (intraperitoneal) in B6D2F1 (BDF1) mice
Settings: endpoint: mean survival time, higher = longer survival
Outline: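 Tumor was transplanted into mice, which were then dosed with test compound or vehicle alone. Survival was recorded for each group, and the treated figure was expressed relative to the control figure.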

[1] = dose: 2.0 mg/kg/injection, schedule: Q01DX001 (ip), vehicle: carboxymethylcellulose (CMC)
[2] = dose: 100.0 mg/kg/injection, schedule: Q01DX009 (ip), vehicle: saline
[3] = dose: 100.0 mg/kg/injection, schedule: Q04DX003 (ip), vehicle: saline
[4] = dose: 200.0 mg/kg/injection, schedule: Q01DX009 (ip), vehicle: saline
[5] = dose: 200.0 mg/kg/injection, schedule: Q04DX003 (ip), vehicle: saline
[6] = dose: 400.0 mg/kg/injection, schedule: Q01DX009 (ip), vehicle: saline
[7] = dose: 400.0 mg/kg/injection, schedule: Q04DX003 (ip), vehicle: saline

Measured: T/C

COC1=C(N)C(=O)c2nc(-c3nc(C(=O)O)c(C)c(-c4ccc(OC)c(OC)c4O)c3N)ccc2C1=O
inactive: dose: 0.02 mg/kg/injection, schedule: Q01DX009 (ip), vehicle: other 86 % of control | dose: 0.05 mg/kg/injection, schedule: Q01DX009 (ip), vehicle: other 94 % of control | dose: 0.05 mg/kg/injection, schedule: Q04DX002 (ip), vehicle: saline 106 % of control | dose: 0.1 mg/kg/injection, schedule: Q01DX Z (ip), vehicle: alkali diluted with CMC 103 % of control and 109 % of control | dose: 0.1 mg/kg/injection, schedule: Q01DX Z (ip), vehicle: water 105 % of control | dose: 0.1 mg/kg/injection, schedule: Q04DX002 (ip), vehicle: saline 120 % of control | dose: 0.12 mg/kg/injection, schedule: Q01DX001 (iv), vehicle: other 102 % of control | dose: 0.12 mg/kg/injection, schedule: Q01DX009 (ip), vehicle: saline 106 % of control | dose: 0.18 mg/kg/injection, schedule: Q01DX001 (ip), vehicle: other 124 % of control | dose: 0.2 mg/kg/injection, schedule: Q01DX009 (ip), vehicle: other 102 % of control | dose: 0.2 mg/kg/injection, schedule: Q01DX Z (ip), vehicle: alkali diluted with CMC 96 % of control and 106 % of control | dose: 0.2 mg/kg/injection, schedule: Q01DX Z (ip), vehicle: water 105 % of control | dose: 0.2 mg/kg/injection, schedule: Q04DX002 (ip), vehicle: saline 113 % of control | dose: 0.25 mg/kg/injection, schedule: Q01DX001 (iv), vehicle: other 114 % of control | dose: 0.25 mg/kg/injection, schedule: Q01DX009 (ip), vehicle: saline 106 % of control and 116 % of control | dose: 0.25 mg/kg/injection, schedule: Q01DX015 (ip), vehicle: water 118 % of control | dose: 0.3 mg/kg/injection, schedule: Q01DX Z (ip), vehicle: water 102 % of control | dose: 0.39 mg/kg/injection, schedule: Q04DX002 (ip), vehicle: saline 110 % of control | dose: 0.4 mg/kg/injection, schedule: Q01DX Z (ip), vehicle: alkali diluted with CMC 104 % of control and 106 % of control | dose: 0.45 mg/kg/injection, schedule: Q01DX Z (ip), vehicle: saline 107 % of control | dose: 0.5 mg/kg/injection, schedule: Q01DX001 (ip), vehicle: carboxymethylcellulose (CMC) 95 % of control | dose: 0.5 mg/kg/injection, schedule: Q01DX001 (iv), vehicle: other 105 % of control | dose: 0.5 mg/kg/injection, schedule: Q01DX009 (ip), vehicle: saline 108 % of control and 86 % of control | dose: 0.5 mg/kg/injection, schedule: Q01DX015 (ip), vehicle: water 101 % of control | dose: 0.66 mg/kg/injection, schedule: Q01DX Z (ip), vehicle: saline 110 % of control | dose: 0.75 mg/kg/injection, schedule: Q01DX001 (ip), vehicle: other 118 % of control | dose: 0.78 mg/kg/injection, schedule: Q04DX002 (ip), vehicle: saline 106 % of control | dose: 0.8 mg/kg/injection, schedule: Q01DX Z (ip), vehicle: alkali diluted with CMC 96 % of control and 91 % of control | dose: 1.0 mg/kg/injection, schedule: Q01DX001 (iv), vehicle: other 91 % of control | dose: 1.5 mg/kg/injection, schedule: Q01DX001 (ip), vehicle: other 121 % of control | dose: 1.5 mg/kg/injection, schedule: Q01DX001 (ip), vehicle: saline 120 % of control | [1] 88 % of control | dose: 2.5 mg/kg/injection, schedule: Q01DX001 (oral), vehicle: water 105 % of control | dose: 5.0 mg/kg/injection, schedule: Q01DX001 (oral), vehicle: water 98 % of control | dose: 10.0 mg/kg/injection, schedule: Q01DX001 (oral), vehicle: water 88 % of control

OCCN(CCO)CN(CO)c1nc(N(CO)CN(CCO)CCO)nc(N(CO)CN(CCO)CCO)n1
inactive: [2] 100 % of control | [3] 101 % of control | [4] 109 % of control | [5] 101 % of control | [6] 109 % of control | [7] 91 % of control

CCc1ccc(CCSCCc2ccc(CC)c[n+]2[O-])[n+]([O-])c1
inactive: dose: 100.0 mg/kg/injection, schedule: Q01DX001 (ip), vehicle: saline 96 % of control | dose: 200.0 mg/kg/injection, schedule: Q01DX001 (ip), vehicle: saline 100 % of control

N#CSCc1c(Cl)c(Cl)c(CSC#N)c(Cl)c1Cl
inactive: dose: 75.0 mg/kg/injection, schedule: Q01DX009 (ip), vehicle: saline 96 % of control | dose: 150.0 mg/kg/injection, schedule: Q01DX009 (ip), vehicle: saline 94 % of control | dose: 300.0 mg/kg/injection, schedule: Q01DX009 (ip), vehicle: saline 93 % of control

CC(C)SCC(N)CO (stereo not given)
inactive: dose: 12.5 mg/kg/injection, schedule: Q01DX009 (ip), vehicle: water 96 % of control | dose: 25.0 mg/kg/injection, schedule: Q01DX009 (ip), vehicle: water 96 % of control and 117 % of control | dose: 50.0 mg/kg/injection, schedule: Q01DX009 (ip), vehicle: water 99 % of control and 120 % of control | dose: 100.0 mg/kg/injection, schedule: Q01DX009 (ip), vehicle: water 100 % of control and 104 % of control | dose: 200.0 mg/kg/injection, schedule: Q01DX009 (ip), vehicle: water 108 % of control

O=[N+]([O-])c1cc([N+](=O)[O-])cc(S(=O)(=O)O)c1
inactive: dose: 25.0 mg/kg/injection, schedule: Q01DX009 (ip), vehicle: saline 106 % of control | dose: 50.0 mg/kg/injection, schedule: Q01DX009 (ip), vehicle: saline 105 % of control | [2] 100 % of control and 111 % of control | [3] 105 % of control | [5] 105 % of control

CCCC(CCC)=NCCN=C(CCC)CCC
inactive: [2] 97 % of control | [4] 94 % of control

CC1=C(O)C(=O)C(c2c(C)cc(C)c(Br)c2C)=C(O)C1=O
inactive: dose: 75.0 mg/kg/injection, schedule: Q01DX009 (ip), vehicle: Klucel (hydroxypropylcellulose) (HPC) 117 % of control

C[n+]1ccccc1SC12CC3CC(CC(C3)C1)C2
inactive: dose: 10.0 mg/kg/injection, schedule: Q01DX009 (ip), vehicle: Klucel (hydroxypropylcellulose) (HPC) 113 % of control

Cc1nc(N)[nH]c(=O)c1CCCNC(=O)Cc1ccccc1
inactive: dose: 12.5 mg/kg/injection, schedule: Q01DX001 (ip), vehicle: Klucel (hydroxypropylcellulose) (HPC) 105 % of control | dose: 25.0 mg/kg/injection, schedule: Q01DX001 (ip), vehicle: Klucel (hydroxypropylcellulose) (HPC) 97 % of control | dose: 50.0 mg/kg/injection, schedule: Q01DX001 (ip), vehicle: Klucel (hydroxypropylcellulose) (HPC) 100 % of control

NC(=O)N/N=C1/C=C2CCCCC2CC1 (stereo not given)
inactive: dose: 75.0 mg/kg/injection, schedule: Q01DX001 (ip), vehicle: other 101 % of control | dose: 150.0 mg/kg/injection, schedule: Q01DX001 (ip), vehicle: other 95 % of control | dose: 300.0 mg/kg/injection, schedule: Q01DX001 (ip), vehicle: other 100 % of control

Oc1c(Br)cc(Br)cc1C=Nc1ccccc1.Oc1c(Br)cc(Br)cc1C=Nc1ccccc1.[Co]
inactive: [3] 92 % of control | [5] 98 % of control | [7] 98 % of control

CCCCC(CCC)(CCC)CCN
inactive: [1] 98 % of control | dose: 2.5 mg/kg/injection, schedule: Q01DX015 (ip), vehicle: carboxymethylcellulose (CMC) 89 % of control | dose: 4.0 mg/kg/injection, schedule: Q01DX001 (ip), vehicle: carboxymethylcellulose (CMC) 103 % of control | dose: 5.0 mg/kg/injection, schedule: Q01DX015 (ip), vehicle: carboxymethylcellulose (CMC) 94 % of control | dose: 8.0 mg/kg/injection, schedule: Q01DX001 (ip), vehicle: carboxymethylcellulose (CMC) 108 % of control | dose: 10.0 mg/kg/injection, schedule: Q01DX015 (ip), vehicle: carboxymethylcellulose (CMC) 93 % of control | dose: 16.0 mg/kg/injection, schedule: Q01DX001 (ip), vehicle: carboxymethylcellulose (CMC) 90 % of control

CCCCN(CCCC)CCCCCN
inactive: dose: 25.0 mg/kg/injection, schedule: Q01DX Z (ip), vehicle: carboxymethylcellulose (CMC) 106 % of control | dose: 50.0 mg/kg/injection, schedule: Q01DX Z (ip), vehicle: carboxymethylcellulose (CMC) 86 % of control | dose: 100.0 mg/kg/injection, schedule: Q01DX Z (ip), vehicle: carboxymethylcellulose (CMC) 90 % of control

CN(C)CCC(O)c1ccc(Cl)cc1 (stereo not given)
inactive: [3] 102 % of control | [5] 98 % of control

O=C(Nc1cccc(C(F)(F)F)c1)Nc1ccccn1
inactive: dose: 100.0 mg/kg/injection, schedule: Q01DX009 (ip), vehicle: gum acacia 99 % of control | dose: 200.0 mg/kg/injection, schedule: Q01DX009 (ip), vehicle: gum acacia 92 % of control | dose: 400.0 mg/kg/injection, schedule: Q01DX009 (ip), vehicle: gum acacia 89 % of control

CC(C)(N)COS(=O)(=O)O
inactive: [2] 106 % of control | [3] 101 % of control | [4] 96 % of control | [5] 114 % of control | [6] 105 % of control | [7] 96 % of control
